One may read the Km as the substrate concentration at which the rate is half of its maximum.

This note sets out measurements from paper PMC8094907 (The Journal of Biological Chemistry, 2021).

In one data set the target is T1, 7620 (Trypanosoma brucei, UniProt Q57V83).
T1 construct: gene Tb08.30P3.140; full-length ORF, untagged, in pDR197; expressed in S. cerevisiae 22574d
Type of data set: cell-based. The conditions noted are these: pH 7.0, 30 °C, excess competitor.

Substrate in data set [1]: O=C(O)[C@@H]1CCCN1
Put plainly: cells, lysate or membranes. The conditions noted are these: pH 7.0, 30 °C, 100 mM glucose, labelled compound.

Turning to `C[C@H](N)C(=O)O` [alanine], the “relative uptake rate (%)” value at 7620 is “proline being the best substrate, followed by alanine and cysteine”. With `N[C@@H](CS)C(=O)O` [cysteine], the “relative uptake rate (%)” value at 7620 was “proline being the best substrate, followed by alanine and cysteine”.

B1: 7620 (Trypanosoma brucei brucei TREU927) (protein)
chain: MTSINAQPPNSATYPQDDHGSAEVVNLNAEVERPQPEEQKDGGGCFARVSLFMATIIPPGGIAASAFNIGSTTVGAGIFGLPAAANSSGLVMAMIYLIIITAMTIFSIYALGVAAERTNIRTYEGVARALLGPWGAYYTAATRAFFSFSACVAYVISVGDILSATLKGTNAPDFLKQKSGNRLLTSLMWLCFMLPLVIPRHIDSLRHVSTIAFILMIYMVLVVVVHSCMNGLPENIKNVSVGKDDNAEIILFNSGNRAIEGLGVFIFSYLFQITAYEVYMDMTNRSVGKFVLVVTIAMGMCLPMYALTAFFGYMDFGRNVTGSVLLQYDPVNYPAVMVGFVGVLVMLFVSYALLGLACRNALYDVIGWDFREVAFWKHCIAVVTLSIVMLLCGLFIPKITTVLGFAGSFCGGSLGFILPALFFMYSGGFTWQKVGPFYYISTYVLLITGVIAAVFGTGATIWAVTVG
For B1, the Km in data set [1] was 600 µM.
